{"source": "paper PMC9312958", "about": "“A Novel and Selective Dopamine Transporter Inhibitor, (S)-MK-26, Promotes Hippocampal Synaptic Plasticity and Restores Effort-Related Motivational Dysfunctions” (Biomolecules, 2022)", "key": {"[1]": {"tested_on": "aged rats", "test": "Hole-board test, spatial reference memory", "format": "in vivo, rat", "text": "In order to examine the effect of (S)-MK-26 on hippocampus-dependent spatial reference memory, we used the standardized hole-board test (animal experiments conducted under BMBWF-66.009/235/V/3b/2018 regulations) following published procedures with minor modifications. In brief, food restriction and controlled body weight loss with it (until steadily reaching 85% of the average body weight sustained during ad libitum feeding) was initially imposed for this experimental study as cognitive/behavioral incentive. A black plastic hole-board maze (1 m^2 base) with 16 symmetrically distributed holes located at the floor (7 cm in diameter and depth) and walls enriched with spatial cues was used (See Figure 4). Accessory distal cues were also visible in the walls of the experimental room. Dustless precision food pellets (45 mg, Bioserv®, Flemington, NJ, USA) were placed as motivational baits in four randomly designated holes, unchanged throughout the test. Several inaccessible pellets were also placed all across the entire area immediately below all the holes of the board maze in order to induce a uniform distribution of the food smell and thus preventing the acute orientating response of the sense of smell from prevailing over the evocation of spatial memories associated with the location of accessible food. […] The behavioral experiments were conducted in a noise-isolated room; all sessions were monitored by a distal overhead conventional digital camera and behavioral data digitalized using the ANY-Maze video tracking system (Stoelting Europe, 8-Terenure Place, Terenure, Dublin, D6W Y006, Ireland). Spatial memory performance was assessed from the number of errors made by the animal, that is, the number of times the animals visit unbaited holes (reference memory). […] Thus, from these measurements, an RMI value of “1” would constitute quantifiable indicator of optimal reference memory, with a performance without empty-hole visiting mistakes. […]"}, "[2]": {"target": "T1, hNET (Homo sapiens, UniProt P23975)", "T1 construct": "expressed in transfected cells", "T1 sequence (P23975 whole entry)": "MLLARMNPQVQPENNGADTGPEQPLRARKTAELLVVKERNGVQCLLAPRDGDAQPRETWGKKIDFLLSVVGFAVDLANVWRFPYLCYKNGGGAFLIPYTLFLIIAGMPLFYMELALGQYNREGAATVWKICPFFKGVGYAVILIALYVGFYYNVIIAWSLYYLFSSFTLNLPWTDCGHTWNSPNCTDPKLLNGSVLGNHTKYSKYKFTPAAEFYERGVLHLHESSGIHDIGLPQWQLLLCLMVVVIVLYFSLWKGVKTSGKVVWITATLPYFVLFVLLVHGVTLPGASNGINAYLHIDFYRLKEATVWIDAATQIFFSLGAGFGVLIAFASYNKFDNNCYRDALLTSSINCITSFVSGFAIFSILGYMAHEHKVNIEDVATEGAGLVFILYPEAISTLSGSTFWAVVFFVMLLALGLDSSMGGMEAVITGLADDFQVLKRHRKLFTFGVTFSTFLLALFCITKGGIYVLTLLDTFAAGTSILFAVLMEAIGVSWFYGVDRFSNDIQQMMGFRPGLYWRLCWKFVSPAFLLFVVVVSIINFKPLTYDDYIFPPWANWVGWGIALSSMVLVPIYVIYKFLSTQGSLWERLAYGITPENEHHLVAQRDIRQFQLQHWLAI", "test": "hNET radioligand binding assay (CHO cells, [3H]nisoxetine)", "description": "Binding affinity to the hDAT, hNET and hSERT expressed in CHO cells was evaluated in in vitro radioligand binding assays. Binding assays were conducted according to the standard and validated protocols under conditions defined by the contractor (Eurofins Cerep SA, Celle-’Evescault, France; study number 100054410). Antagonist radioligand assays were conducted for the human norepinephrine, the human dopamine, and the serotonin transporters (using CHO cells), using [^3H]nisoxetine (1 nM), [^3H]BTCP (4 nM), and [^3H]imipramine (2 nM) as ligands and desipramine (1 µM), BTCP (10 µM), and imipramine (10 µM) as non-specific agents, respectively (with scintillation counting as detection method)."}}}
{"smiles": "[O-][S@@+](Cc1cncs1)C(c1cccc(Cl)c1)c1cccc(Cl)c1", "note": "[(S)-MK-26, (S)-5-(((B(3-chlorophenyl)methyl)sulphinyl)methyl)thiazole]", "values": [{"measurement": "spatial reference memory (reference memory index)", "setting": "[1]; 10 mg/kg i.p. daily, vs Kolliphor", "value": "slight and transitory—yet statistically significant—enhancement of spatial reference memory"}, {"measurement": "exploratory activity (distance travelled) during H3 habituation session", "setting": "[1]; 10 mg/kg i.p., p = 0.0053", "value": "induced an increase in ecology-like exploratory activity"}, {"measurement": "number of hole dips", "setting": "[1]; 10 mg/kg i.p., vs Kolliphor", "value": "No differences"}, {"measurement": "binding to NET", "setting": "[2]", "value": "trifling bindings"}]}
